Like-named read-outs stand apart in the source and are kept apart here. Each block holds one molecule with its values, some of them ahead of it.
Legend:
KB-8-5-11 = assay: cells; set-up: SRB anti-proliferation assay against a panel of human tumour cell lines
Description: (§1) The anti-proliferative activity of S9 was measured with SRB assay against a panel of human tumor cells, including oral epidermoid cancer, lung cancer, liver cancer, colon cancer, rhabdomyosarcoma, ovarian cancer, osteosarcoma, breast cancer, cervix cancer, stomach cancer, prostate cancer and leukemia cells. […] This advantage was also observed in the mini-set of colon cancer cell lines (Fig. 6A). […] A) Antiproliferative activity of S9 and wortmannin against a wide panel of tumor cell lines. IC50s plotted as mean±SD (µM) were from three separate experiments. B) Resistance factor (RF) of S9 and reference compounds in drug-resistant cancer cells. RF was calculated as the ratio of the IC50 value of the drug-resistant cells to that of the corresponding parental cells. C) S9 induces rapid apoptosis in human cancer cells. Rh30, A375, MKN-28 and U2OS cells were treated with S9 for 8 h. Apoptosis was measured by Annexin V-PI double staining. Apoptosis measured as Annexin-V positive cells were plotted. Data shown were mean±SD from three independent experiments. D) Rh30 (left panel) and SMMC7721 (right panel) xenograft growth inhibition after administration of S9. Rh30 and SMMC7721 nude mice were subcutaneously inoculated with a tumor fragment. The animals were randomly divided in groups when tumor volume reached 100 to 200 mm^3 and received i.p. injection of normal saline or S9 five times a week for two weeks. Tumor volumes were measured and relative tumor volumes were calculated as tumor volumeDn/tumor volumeD0. Data shown are the mean of six mice. Human colorectal carcinoma LOVO, human breast carcinoma MDA-MB-468, human prostate carcinoma PC3, human osteosarcoma U2OS cells were from American Type Culture Collection (ATCC, Manassas, VA); human lung adenocarcinoma NCI-H23 cells were obtained from the National Cancer Institute (NCI); rhabdomyosarcoma (RMS) Rh30 cells were generous gift from Dr. P.J. Houghton (St. Jude Children's Research Hospital, Memphis, TN). MDA-MB-468, Rh30, LOVO, NCI-H23 and U2OS cells were grown in RPMI-1640 medium supplemented with 10% (v/v) fetal bovine serum (FBS; GIBCO, Grand Island, NY), 2 mM L-glutamine, 100 U/ml benzylpenicillin, 100 µg/ml streptomycin and 10 mM HEPES (pH 7.4). PC3 cells were grown in Ham's F12 (GIBCO, Grand Island, NY) with 10% FBS. CHO (pCORON1000-EGFP-Akt) was purchased from GE Healthcare (EGFP: Enhanced Green Fluorescence Protein) and propagated in F-12 Ham medium with Glutamax supplemented with 10% FBS, penicillin-streptomycin (50 U/ml) and geneticin (0.5 mg/ml, Sigma-Aldrich, St. Louis, MO). Rest of cells used in this study were grown as described previously. All cells were cultured in a highly humidified atmosphere containing 5% CO2 at 37°C.

PC3 = assay: cells; set-up: SRB anti-proliferation assay against a panel of human tumour cell lines; settings: Homo sapiens, PC-3; read-out: IC50 (μM) S9
Description: as §1

NCI-H23 = assay: cells; set-up: SRB anti-proliferation assay against a panel of human tumour cell lines; settings: Homo sapiens, NCI-H23
Description: as §1

SGC-7901 = assay: cells; set-up: SRB anti-proliferation assay against a panel of human tumour cell lines; settings: Homo sapiens, SGC-7901
Description: as §1

KB-V1 = assay: cells; set-up: SRB anti-proliferation assay against a panel of human tumour cell lines; settings: Homo sapiens, KB-V1
Description: as §1

A549 = assay: cells; set-up: SRB anti-proliferation assay against a panel of human tumour cell lines; settings: Homo sapiens, A549
Description: as §1

MCF-7/ADR = assay: cells; set-up: SRB anti-proliferation assay against a panel of human tumour cell lines; settings: Homo sapiens, NCI/ADR-RES
Description: as §1

K562/G01 = assay: cells; set-up: SRB anti-proliferation assay against a panel of human tumour cell lines; settings: Homo sapiens, K562
Description: as §1

LOVO = assay: cells; set-up: SRB anti-proliferation assay against a panel of human tumour cell lines; settings: Homo sapiens, LoVo
Description: as §1

HL60 = assay: cells; set-up: SRB anti-proliferation assay against a panel of human tumour cell lines; settings: Homo sapiens, HL-60
Description: as §1

Rh1 = assay: cells; set-up: SRB anti-proliferation assay against a panel of human tumour cell lines; settings: Homo sapiens, RH-1; read-out: IC50 (μM) S9
Description: as §1

Rh30/rapa = assay: cells; set-up: SRB anti-proliferation assay against a panel of human tumour cell lines; settings: Rh30
Description: as §1

BEL-7402 = assay: cells; set-up: SRB anti-proliferation assay against a panel of human tumour cell lines; settings: Homo sapiens, Bel-7402; read-out: IC50 (μM) S9
Description: as §1

U2OS = assay: cells; set-up: SRB anti-proliferation assay against a panel of human tumour cell lines; settings: Homo sapiens, U2OS
Description: as §1

K562 = assay: cells; set-up: SRB anti-proliferation assay against a panel of human tumour cell lines; settings: Homo sapiens, K562
Description: as §1

MDA-MB-468 = assay: cells; set-up: SRB anti-proliferation assay against a panel of human tumour cell lines; settings: Homo sapiens, MDA-MB-468
Description: as §1

Hep-G2 = assay: cells; set-up: SRB anti-proliferation assay against a panel of human tumour cell lines; settings: Homo sapiens, HepG2
Description: as §1

OV-CAR-5 = assay: cells; set-up: SRB anti-proliferation assay against a panel of human tumour cell lines; settings: Homo sapiens, OVCAR-5; read-out: IC50 (μM) S9
Description: as §1

Rh30 = assay: cells; set-up: SRB anti-proliferation assay against a panel of human tumour cell lines; settings: Rh30
Description: as §1

HT-29 = assay: cells; set-up: SRB anti-proliferation assay against a panel of human tumour cell lines; settings: Homo sapiens, HT-29
Description: as §1

Hela = assay: cells; set-up: SRB anti-proliferation assay against a panel of human tumour cell lines; settings: Homo sapiens, HeLa; read-out: IC50 (μM) S9
Description: as §1

HL60/MX2 = assay: cells; set-up: SRB anti-proliferation assay against a panel of human tumour cell lines; settings: Homo sapiens, HL60/MX2
Description: as §1

SK-OV-3 = assay: cells; set-up: SRB anti-proliferation assay against a panel of human tumour cell lines; settings: Homo sapiens, SK-OV-3
Description: as §1

MKN-45 = assay: cells; set-up: SRB anti-proliferation assay against a panel of human tumour cell lines; settings: Homo sapiens, MKN-45; read-out: IC50 (μM) S9
Description: as §1

MKN-28 = assay: cells; set-up: SRB anti-proliferation assay against a panel of human tumour cell lines; settings: Homo sapiens, MKN-28
Description: as §1

KB-3-1 = assay: cells; set-up: SRB anti-proliferation assay against a panel of human tumour cell lines; settings: Homo sapiens, KB 3-1
Description: as §1

KB-8-5 = assay: cells; set-up: SRB anti-proliferation assay against a panel of human tumour cell lines; settings: read-out: IC50 (μM) S9
Description: as §1

K562/A02 = assay: cells; set-up: SRB anti-proliferation assay against a panel of human tumour cell lines; settings: Homo sapiens, K562/A02; read-out: IC50 (μM) S9
Description: as §1

HCT-116 = assay: cells; set-up: SRB anti-proliferation assay against a panel of human tumour cell lines; settings: Homo sapiens, HCT-116
Description: as §1

MCF-7 = assay: cells; set-up: SRB anti-proliferation assay against a panel of human tumour cell lines; settings: Homo sapiens, MCF7; read-out: IC50 (μM) S9
Description: as §1

tubulin = target: T1, tubulin; assay: SPR (Biacore); supported by colchicine fluorescence competition, polymerization of purified pork tubulin and CD; assay type: binding, Sus scrofa
T1 construct: gene TUBB; purified tubulin (Cytoskeleton, Denver) immobilized on CM5 chip; with alpha-tubulin

IC50 (KB-8-5-11; read-out: IC50 (μM) S9): 14.9 ± 1.3 µM
IC50 (PC3): 5.34 ± 1.39 µM
IC50 (NCI-H23; read-out: IC50 (μM) S9): 9.02 ± 0.05 µM
IC50 (SGC-7901; read-out: IC50 (μM) S9): 11.6 ± 2.41 µM
IC50 (KB-V1; read-out: IC50 (μM) S9): 13.3 ± 2.2 µM
IC50 (A549; read-out: IC50 (μM) S9): 14.8 ± 2.2 µM
IC50 (MCF-7/ADR; read-out: IC50 (μM) S9): 5.73 ± 1.68 µM
IC50 (K562/G01; read-out: IC50 (μM) S9): 2.17 µM
IC50 (LOVO; read-out: IC50 (μM) S9): 5.05 ± 0.5 µM
IC50 (HL60; read-out: IC50 (μM) S9): 2.25 ± 0.74 µM
IC50 (BEL-7402): 11.8 ± 1.6 µM
IC50 (U2OS; read-out: IC50 (μM) S9): 5.9 ± 0.38 µM
IC50 (K562; read-out: IC50 (μM) S9): 2.2 ± 0.33 µM
IC50 (MDA-MB-468; read-out: IC50 (μM) S9): 14.1 ± 4.6 µM
IC50 (Hep-G2; read-out: IC50 (μM) S9): 4.55 ± 1.8 µM
IC50 (HT-29; read-out: IC50 (μM) S9): 5.88 ± 0.28 µM
IC50 (Hela): 6.36 ± 1.51 µM
IC50 (HL60/MX2; read-out: IC50 (μM) S9): 2.41 ± 1.28 µM
IC50 (SK-OV-3; read-out: IC50 (μM) S9): 25.5 ± 0.1 µM
IC50 (MKN-45): 2.62 ± 0.26 µM
IC50 (MKN-28; read-out: IC50 (μM) S9): 2.38 ± 0.39 µM
IC50 (KB-3-1; read-out: IC50 (μM) S9): 20.2 ± 3.8 µM
IC50 (KB-8-5): 28.8 ± 7.3 µM
IC50 (K562/A02): 2.5 ± 0.01 µM
IC50 (HCT-116; read-out: IC50 (μM) S9): 19.6 ± 1.9 µM
IC50 (MCF-7): 4.86 ± 1.34 µM
Kd (tubulin): 11.1 µM
Compound: C=C1CC(Cn2c(-c3ccccc3)cc3cc(OCOC)ccc32)OC1=O (stereo not shown) [S9]
IC50 (Rh1): 6.14 ± 0.05 µM
IC50 (Rh30/rapa; read-out: IC50 (μM) S9): 3.85 ± 0.95 µM
IC50 (OV-CAR-5): 15.4 ± 2.9 µM
IC50 (Rh30; read-out: IC50 (μM) S9): 3.24 ± 1.2 µM

Compound: COC[C@H]1OC(=O)c2coc3c2[C@@]1(C)C1=C(C3=O)[C@@H]2CCC(=O)[C@@]2(C)C[C@H]1OC(C)=O [wortmannin]
IC50 (KB-8-5-11; read-out: IC50 (μM) wortmannin): 15.7 ± 4.1 µM
IC50 (NCI-H23; read-out: IC50 (μM) wortmannin): 5.57 ± 1.15 µM
IC50 (SGC-7901; read-out: IC50 (μM) wortmannin): 3.94 ± 1.74 µM
IC50 (KB-V1; read-out: IC50 (μM) wortmannin): 16.8 ± 2.2 µM
IC50 (A549; read-out: IC50 (μM) wortmannin): 9.33 ± 6.1 µM
IC50 (MCF-7/ADR; read-out: IC50 (μM) wortmannin): 47.2 ± 6.45 µM
IC50 (K562/G01; read-out: IC50 (μM) wortmannin): 10.4 ± 4.52 µM
IC50 (LOVO; read-out: IC50 (μM) wortmannin): 12.2 ± 0.42 µM
IC50 (HL60; read-out: IC50 (μM) wortmannin): 7.55 ± 2.84 µM
IC50 (Rh30/rapa; read-out: IC50 (μM) wortmannin): 0.73 ± 0.51 µM
IC50 (U2OS; read-out: IC50 (μM) wortmannin): 26.7 ± 4.31 µM
IC50 (K562; read-out: IC50 (μM) wortmannin): 54.8 ± 6.3 µM
IC50 (MDA-MB-468; read-out: IC50 (μM) wortmannin): 29.3 ± 6.6 µM
IC50 (Hep-G2; read-out: IC50 (μM) wortmannin): 12.3 ± 2.6 µM
IC50 (Rh30; read-out: IC50 (μM) wortmannin): 11 ± 3.02 µM
IC50 (HT-29; read-out: IC50 (μM) wortmannin): 18 ± 2.4 µM
IC50 (HL60/MX2; read-out: IC50 (μM) wortmannin): 1.47 ± 0.6 µM
IC50 (SK-OV-3; read-out: IC50 (μM) wortmannin): 18 ± 6.3 µM
IC50 (MKN-28; read-out: IC50 (μM) wortmannin): 12.8 ± 2.8 µM
IC50 (KB-3-1; read-out: IC50 (μM) wortmannin): 27.2 ± 3.2 µM
IC50 (HCT-116; read-out: IC50 (μM) wortmannin): 41.5 ± 4.5 µM
